Data reported in patent publication US20230212222A1 (ANYGEN CO., LTD., priority 2020, published 2023).
Square brackets hold non-standard residues; d marks the D form. Peptide text beside a SMILES is read from it. * marks the point of attachment. His(Trt) = N[C@@H](Cc1cn(C(c2ccccc2)(c2ccccc2)c2ccccc2)cn1)C(=O)O; dHis(Trt) = N[C@H](Cc1cn(C(c2ccccc2)(c2ccccc2)c2ccccc2)cn1)C(=O)O; His(τ-CHPh2) = N[C@@H](Cc1cn(C(c2ccccc2)c2ccccc2)cn1)C(=O)O; Tyr(3-NO2) = N[C@@H](Cc1ccc(O)c([N+](=O)[O-])c1)C(=O)O; dPhe(4-Br) = N[C@H](Cc1ccc(Br)cc1)C(=O)O; dPhe(4-Me) = Cc1ccc(C[C@@H](N)C(=O)O)cc1; Octanoyl = CCCCCCCC(=O)*

These compounds were tested against T1, GPR39 (Homo sapiens, UniProt O43194).
T1 sequence (O43194 1-453): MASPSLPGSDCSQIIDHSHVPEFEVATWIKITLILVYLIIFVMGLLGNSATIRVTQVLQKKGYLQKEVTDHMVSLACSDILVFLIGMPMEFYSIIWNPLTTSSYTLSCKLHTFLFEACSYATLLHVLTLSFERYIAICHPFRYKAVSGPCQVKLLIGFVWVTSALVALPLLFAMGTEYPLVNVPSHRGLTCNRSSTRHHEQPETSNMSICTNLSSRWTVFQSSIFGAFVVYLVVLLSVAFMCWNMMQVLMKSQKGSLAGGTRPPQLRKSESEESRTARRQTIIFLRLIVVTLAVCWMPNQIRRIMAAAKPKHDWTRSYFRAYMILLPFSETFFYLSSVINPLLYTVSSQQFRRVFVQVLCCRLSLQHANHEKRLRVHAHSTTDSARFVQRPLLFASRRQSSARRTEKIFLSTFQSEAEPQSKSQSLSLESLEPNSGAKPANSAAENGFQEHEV
Experimental: Specifically, the fibroblast cell line CV-1 (1×10^5 cells/ml, Korea Cell Line Bank) was cultured in a 96 well cell culture plate for 24 hours, and then treated with GPR39 inserted into adenovirus and SRE (serum response element) luciferase at 50 MOI (multiplicity of infection) and 25 MOI virus for 3 hours, respectively, and then cultured for 24 hours.

Structure (SMILES)	ECmax (-fold induction over basal)
C[C@H](NC(=O)[C@H](CCC(N)=O)NC(=O)[C@H](CCC(N)=O)NC(=O)[C@H](CC(=O)O)NC(=O)[C@H](Cc1ccc(O)cc1)NC(=O)[C@H](Cc1ccccc1)NC(=O)[C@@H](N)Cc1cn(C(c2ccccc2)(c2ccccc2)c2ccccc2)cn1)C(=O)N[C@@H](CCCNC(=N)N)C(=O)N[C@@H](Cc1ccccc1)C(N)=O [HKFY-52, (6S,9S,12S,15S,18S)-1-amino-6-(((S)-1-amino-1-oxo-3-phenylpropan-2-yl)carbamoyl)-18-((S)-2-((S)-2-((S)-2-amino-3-(1-trityl-1H-imidazol-4-yl)propanamido)-3-phenylpropanamido)-3-(4-hydroxyphenyl)propanamido)-12,15-bis(3-amino-3-oxopropyl)-1-imino-9-methyl-8,11,14,17-tetraoxo-2,7,10,13,16-pentaazaicosan-20-oic acid] (H-[His(Trt)]FYDQQARF-NH2)	15.5 ± 2.2 -fold induction over basal
CCCCCCCC(=O)NCCCC[C@H](NC(=O)[C@@H](N)Cc1cn(Cc2cccc3ccccc23)cn1)C(=O)N[C@@H](Cc1ccccc1)C(=O)N[C@@H](Cc1ccc(O)cc1)C(=O)O [HKFY-10, N2-(Nt-(naphthalen-1-ylmethyl)-L-histidyl)-N6-octanoyl-L-lysyl-L-phenylalanyl-L-tyrosine]	14 ± 2.12 -fold induction over basal
CCCCCCCC(=O)NCCCC[C@H](NC(=O)[C@@H](N)Cc1cn(C(c2ccccc2)(c2ccccc2)c2ccccc2)cn1)C(=O)N[C@@H](Cc1ccccc1)C(=O)O [HKFY-49, N6-octanoyl-N2-(Nt-trityl-L-histidyl)-L-lysyl-L-phenylalanine] (H-[His(Trt)]-Lys(Octanoyl)-Phe-OH)	18.3 ± 1.8 -fold induction over basal
CCCCCCCC(=O)NCCCC[C@H](NC(=O)[C@@H](N)Cc1cn(CCc2ccccc2)cn1)C(=O)N[C@@H](Cc1ccccc1)C(=O)N[C@@H](Cc1ccc(O)cc1)C(=O)O [HKFY-9, N6-octanoyl-N2-(Nt-phenethyl-L-histidyl)-L-lysyl-L-phenylalanyl-L-tyrosine]	21 ± 2.52 -fold induction over basal
CCCCCCCC(=O)NCCCC[C@H](NC(=O)[C@@H](N)Cc1c[nH]c(-c2ccc(C(C)(C)C)cc2)n1)C(=O)N[C@H](Cc1ccc(C)cc1)C(=O)N[C@@H](Cc1ccc(O)cc1)C(=O)O [HKFY-60, ((R)-2-((S)-2-((S)-2-amino-3-(2-(4-(tert-butyl)phenyl)-1H-imidazol-4-yl)propanamido)-6-octanamidohexanamido)-3-(p-tolyl)propanoyl)-L-tyrosine]	28.2 ± 2.5 -fold induction over basal
CCCCCCCC(=O)NCCCC[C@H](NC(=O)[C@@H](N)Cc1cn(C(c2ccccc2)(c2ccccc2)c2ccccc2)cn1)C(=O)N[C@H](Cc1ccc(Br)cc1)C(=O)N[C@@H](Cc1ccc(O)cc1)C(=O)O [HKFY-29, ((R)-2-((S)-2-((S)-2-amino-3-(1-trityl-1H-imidazol-4-yl)propanamido)-6-octanamidohexanamido)-3-(4-bromophenyl)propanoyl)-L-tyrosine] (H-[His(Trt)]K(Octanoyl)[dPhe(4-Br)]Y-OH)	26.8 ± 1.87 -fold induction over basal
CCCCCCCC(=O)NCCCC[C@H](NC(=O)[C@@H](N)Cc1cn(C(c2ccccc2)(c2ccccc2)c2ccccc2)cn1)C(=O)N[C@@H](Cc1ccccc1)C(=O)N[C@@H](Cc1ccc(O)cc1)C(=O)N[C@@H](Cc1c[nH]cn1)C(=O)N[C@@H](CCC(N)=O)C(=O)N[C@@H](CCC(N)=O)C(=O)N[C@@H](C)C(=O)N[C@@H](CCCNC(=N)N)C(=O)N[C@@H](Cc1ccccc1)C(N)=O [HKFY-42, (S)-2-((2S,5S,8S,11S)-2-((1H-imidazol-4-yl)methyl)-11-((S)-2-amino-3-(1-trityl-1H-imidazol-4-yl)propanamido)-8-benzyl-5-(4-hydroxybenzyl)-4,7,10,17-tetraoxo-3,6,9,16-tetraazatetracosanamido)-N1-((S)-5-amino-1-(((S)-1-(((S)-1-(((S)-1-amino-1-oxo-3-phenylpropan-2-yl)amino)-5-guanidino-1-oxopentan-2-yl)amino)-1-oxopropan-2-yl)amino)-1,5-dioxopentan-2-yl)pentanediamide] (H-[His(Trt)]K(Octanoyl)FYHQQARF-NH2)	11.8 ± 0.02 -fold induction over basal
CCCCCCCC(=O)NCCCC[C@H](NC(=O)[C@H](N)Cc1cn(C(c2ccccc2)c2ccccc2)cn1)C(=O)N[C@H](Cc1ccc(C)cc1)C(=O)N[C@@H](Cc1ccc(O)cc1)C(=O)O [HKFY-62, ((R)-2-((S)-2-((R)-2-amino-3-(1-benzhydryl-1H-imidazol-4-yl)propanamido)-6-octanamidohexanamido)-3-(p-tolyl)propanoyl)-L-tyrosine]	28.1 ± 2.1 -fold induction over basal
CCCCCCCC(=O)NCCCC[C@H](NC(=O)[C@H](N)Cc1cn(C(c2ccccc2)(c2ccccc2)c2ccccc2)cn1)C(=O)N[C@@H](Cc1ccccc1)C(=O)N[C@@H](Cc1ccc(O)cc1)C(=O)O [HKFY-4, N6-octanoyl-N2-(Nt-trityl-D-histidyl)-L-lysyl-L-phenylalanyl-L-tyrosine] (H-[dHis(Trt)]K(Octanoyl)FY-OH)	16.8 ± 1.87 -fold induction over basal
CCCCCCCC(=O)NCCCC[C@H](N)C(=O)N[C@@H](Cc1ccccc1)C(=O)N[C@@H](Cc1ccc(O)cc1)C(=O)O [HKFY-54, N6-octanoyl-L-lysyl-L-phenylalanyl-L-tyrosine] (H-Lys(Octanoyl)-Phe-Tyr-OH)	7.8 ± 2.5 -fold induction over basal
CCCCCCCC(=O)NCCCC[C@H](NC(=O)[C@@H](N)Cc1cn(C(c2ccccc2)c2ccccc2)cn1)C(=O)N[C@H](Cc1ccc(C)cc1)C(=O)N[C@@H](Cc1ccc(O)c([N+](=O)[O-])c1)C(=O)O [HKFY-68, (S)-2-((R)-2-((S)-2-((S)-2-amino-3-(1-benzhydryl-1H-imidazol-4-yl)propanamido)-6-octanamidohexanamido)-3-(p-tolyl)propanamido)-3-(4-hydroxy-3-nitrophenyl)propanoic acid] (H-[His(τ-CHPh2)]K(Octanoyl)[dPhe(4-Me)][Tyr(3-NO2)]-OH)	10.8 ± 1.41 -fold induction over basal
CCCCCCCC(=O)NCCCC[C@H](NC(=O)[C@@H](N)Cc1cn(S(=O)(=O)c2ccc(C)cc2)cn1)C(=O)N[C@H](Cc1ccc(C)cc1)C(=O)N[C@@H](Cc1ccc(O)cc1)C(=O)O [HKFY-75, ((R)-2-((S)-2-((S)-2-amino-3-(1-tosyl-1H-imidazol-4-yl)propanamido)-6-octanamidohexanamido)-3-(p-tolyl)propanoyl)-L-tyrosine]	15.9 ± 4.12 -fold induction over basal
CCCCCCCC(=O)NCCCC[C@H](NC(=O)[C@@H](N)Cc1cn(C(c2ccccc2)(c2ccccc2)c2ccccc2)cn1)C(=O)N[C@@H](Cc1ccc(O)cc1)C(=O)N[C@@H](Cc1ccccc1)C(=O)O [HKFY-47, N6-octanoyl-N2-(Nt-trityl-L-histidyl)-L-lysyl-L-tyrosyl-L-phenylalanine] (H-[His(Trt)]K(Octanoyl)YF-OH)	13 ± 1.7 -fold induction over basal
CCCCCCCC(=O)NCCCC[C@H](NC(=O)[C@@H](N)Cc1cn(C(c2ccccc2)c2ccccc2)cn1)C(=O)O [HKFY-79, N2-(Nt-benzhydryl-L-histidyl)-N6-octanoyl-L-lysine]	11.2 ± 1.4 -fold induction over basal
CCCCCCCC(=O)NCCCC[C@H](NC(=O)[C@@H](N)Cc1cn(CCC2CCCCC2)cn1)C(=O)N[C@@H](Cc1ccccc1)C(=O)N[C@@H](Cc1ccc(O)cc1)C(=O)O [HKFY-11, N2-(Nt-(2-cyclohexylethyl)-L-histidyl)-N6-octanoyl-L-lysyl-L-phenylalanyl-L-tyrosine]	22 ± 2.2 -fold induction over basal
CCCCCCCC(=O)NCCCC[C@H](NC(=O)[C@@H](N)Cc1cn(C(c2ccccc2)(c2ccccc2)c2ccccc2)cn1)C(=O)N[C@@H](Cc1ccccc1)C(=O)N[C@@H](Cc1ccc(O)cc1)C(=O)N[C@@H](Cc1c[nH]c2ccccc12)C(=O)O [HKFY-44, N6-octanoyl-N2-(Nt-trityl-L-histidyl)-L-lysyl-L-phenylalanyl-L-tyrosyl-L-tryptophan] (H-[His(Trt)]K(Octanoyl)FYW-OH)	20 ± 0.47 -fold induction over basal
CCCCCCCC(=O)NCCCC[C@H](NC(=O)[C@@H](N)Cc1cn(C(c2ccccc2)c2ccc(F)cc2F)cn1)C(=O)N[C@H](Cc1ccc(C)cc1)C(=O)N[C@@H](Cc1ccc(O)cc1)C(=O)O (stereo partly drawn) [HKFY-32, ((2R)-2-((2S)-2-((2S)-2-amino-3-(1-((2,4-difluorophenyl)(phenyl)methyl)-1H-imidazol-4-yl)propanamido)-6-octanamidohexanamido)-3-(p-tolyl)propanoyl)-L-tyrosine]	21.5 ± 2.7 -fold induction over basal
CCCCCCCC(=O)NCCCC[C@H](NC(=O)[C@@H](N)Cc1cn(CCc2ccccc2)cn1)C(=O)N[C@@H](Cc1ccccc1)C(=O)N[C@@H](Cc1ccc(O)cc1)C(=O)O [HKFY-19, N6-octanoyl-N2-(Nt-phenethyl-L-histidyl)-L-lysyl-L-phenylalanyl-L-tyrosine]	18 ± 1.7 -fold induction over basal
CCCCCCCC(=O)NCCCC[C@H](NC(=O)[C@@H](N)Cc1cn(C23CC4CC(CC(C4)C2)C3)cn1)C(=O)N[C@@H](Cc1ccccc1)C(=O)N[C@@H](Cc1ccc(O)cc1)C(=O)O [HKFY-23, N2-(Nt-(adamantan-1-yl)-L-histidyl)-N6-octanoyl-L-lysyl-L-phenylalanyl-L-tyrosine]	15 ± 1.37 -fold induction over basal
